What is called EC50 is the concentration that produces a half-maximal response.

Molecules are shown by their SMILES. Where only a bound is given, the exact number is not on record here.

The subject of the assay is hRSV strain Long. The assay can be described thus: hRSV CPE assay. It is filed as cell-based, human respiratory syncytial virus. The conditions noted are these: human respiratory syncytial virus, HEp-2, read-out: RSV CPE potency ± standard deviation EC50, HEp-2 cells, hRSV strain Long, 10-point dose response.
Consider `COCCCNC(=O)c1ccc(Cn2c(=O)c3ccccc3n(Cc3ccccc3Br)c2=O)cc1` [Compound 8, 4-((1-(2-Bromobenzyl)-2,4-dioxo-1,2-dihydroquinazolin-3(4H)-yl)methyl)-N-(3-methoxypropyl)benzamide], for which the EC50 is above 50 µM.

In the case of `COCCCNC(=O)c1ccc(Cn2c(=O)c3ccccc3n(Cc3cccc(Br)c3)c2=O)cc1` [Compound 9, 4-((1-(3-Bromobenzyl)-2,4-dioxo-1,2-dihydroquinazolin-3(4H)-yl)methyl)-N-(3-methoxypropyl)benzamide], the EC50 is 2.2 ± 0.1 µM.

As for `COCCCNC(=O)c1ccc(Cn2c(=O)c3ccccc3n(Cc3ccc(F)cc3)c2=O)cc1` [Compound 12, 4-((1-(4-Fluorobenzyl)-2,4-dioxo-1,2-dihydroquinazolin-3(4H)-yl)-methyl)-N-(3-methoxypropyl)benzamide], the EC50 was 5.1 ± 0.4 µM.

Regarding `COCCCNC(=O)c1ccc(Cn2c(=O)c3ccccc3n(Cc3cc(C)on3)c2=O)cc1` [Compound 21, N-(3-Methoxypropyl)-4-((1-((5-methylisoxazol-3-yl)methyl)-2,4-dioxo-1,2 dihydroquinazolin-3(4H)-yl)methyl)benzamide], the EC50 was above 50 µM.

`CCOCCCNC(=O)c1ccc(Cn2c(=O)c3ccccc3n(Cc3ccc(C)cc3)c2=O)cc1` [Compound 24, N-(3-Ethoxypropyl)-4-((1-(4-methylbenzyl)-2,4-dioxo-1,2-dihydroquinazolin-3(4H)-yl)methyl)benzamide]: the EC50 is 1.9 ± 0.2 µM.

Consider `Cc1ccc(Cn2c(=O)n(Cc3ccc(C(=O)NCCCOC(C)C)cc3)c(=O)c3ccccc32)cc1` [Compound 25, N-(3-Isopropoxypropyl)-4-((1-(4-methylbenzyl)-2,4-dioxo-1,2-dihydroquinazolin-3(4H)-yl)methyl)benzamide], for which the EC50 amounted to 2 ± 0.2 µM.

`Cc1ccc(Cn2c(=O)n(Cc3ccc(C(=O)NCCCN(C)C)cc3)c(=O)c3ccccc32)cc1` [Compound 26, N-(3-(Dimethylamino)propyl)-4-((1-(4-methylbenzyl)-2,4-dioxo-1,2-dihydroquinazolin-3(4H)-yl)methyl)benzamide]: the EC50 amounted to 9.5 ± 0.4 µM.

Consider `COCCNC(=O)c1ccc(Cn2c(=O)c3ccccc3n(Cc3ccc(C)cc3)c2=O)cc1` [Compound 28, N-(2-Methoxyethyl)-4-((1-(4-methylbenzyl)-2,4-dioxo-1,2-dihydroquinazolin-3(4H)-yl)methyl)benzamide], for which the EC50 amounted to 2.2 ± 1.4 µM.

As to `Cc1ccc(Cn2c(=O)n(Cc3ccc(C(=O)N4CCOCC4)cc3)c(=O)c3ccccc32)cc1` [Compound 31, 1-(4-Methylbenzyl)-3-(4-(morpholine-4-carbonyl)benzyl)-quinazoline-2,4(1H,3H)-dione], the EC50 is above 50 µM.

Consider `Cc1ccc(Cn2c(=O)n(Cc3ccc(C(=O)N4CCCC4)cc3)c(=O)c3ccccc32)cc1` [Compound 32, 1-(4-Methylbenzyl)-3-(4-(pyrrolidine-1-carbonyl)benzyl)-quinazoline-2,4(1H,3H)-dione], for which the half-maximal effective concentration (EC50) is above 50 µM.

With `Cc1ccc(Cn2c(=O)n(Cc3ccc(C(=O)N4CCCCC4)cc3)c(=O)c3ccccc32)cc1` [Compound 33, 1-(4-Methylbenzyl)-3-(4-(piperidine-1-carbonyl)benzyl)-quinazoline-2,4(1H,3H)-dione], the EC50 was above 50 µM.

As to `CNC(=O)c1ccc(Cn2c(=O)c3ccccc3n(Cc3ccc(C)cc3)c2=O)cc1` [Compound 34, N-Methyl-4-((1-(4-methylbenzyl)-2,4-dioxo-1,2-dihydroquinazolin-3(4H)-yl)methyl)benzamide], the EC50 came out at 2.2 ± 0.9 µM.

For `Cc1ccc(Cn2c(=O)n(Cc3ccc(C(=O)N(C)C)cc3)c(=O)c3ccccc32)cc1` [Compound 35, N,N-Dimethyl-4-((1-(4-methylbenzyl)-2,4-dioxo-1,2-dihydroquinazolin-3(4H)-yl)methyl)benzamide], the EC50 is above 50 µM.

Consider `Cc1ccc(Cn2c(=O)n(Cc3ccc(C(=O)NC4CCCCC4)cc3)c(=O)c3ccccc32)cc1` [Compound 37, N-Cyclohexyl-4-((1-(4-methylbenzyl)-2,4-dioxo-1,2-dihydroquinazolin-3(4H)-yl)methyl)benzamide], for which the EC50 was above 50 µM.

(Values after paper PMC4281105 (Journal of medicinal chemistry, 2014).)
